Measured values as given in patent publication US20080103141A1, “New compounds” (Biovitrum, priority 2006, published 2008).

target: T1, human GPR119 receptor (Homo sapiens, UniProt Q8TDV5); test: Human GPR119 activity assay (cAMP HTRF in HEK293-hGPR119 cells); assay type: cell-based; settings: stimulation of cAMP in HEK293 cells stably expressing human GPR119, 20 min at room temperature, read-out: Agonist potency at the human GPR119, EC50
T1 construct: expressed in transfected cells
T1 sequence (Q8TDV5 1-335): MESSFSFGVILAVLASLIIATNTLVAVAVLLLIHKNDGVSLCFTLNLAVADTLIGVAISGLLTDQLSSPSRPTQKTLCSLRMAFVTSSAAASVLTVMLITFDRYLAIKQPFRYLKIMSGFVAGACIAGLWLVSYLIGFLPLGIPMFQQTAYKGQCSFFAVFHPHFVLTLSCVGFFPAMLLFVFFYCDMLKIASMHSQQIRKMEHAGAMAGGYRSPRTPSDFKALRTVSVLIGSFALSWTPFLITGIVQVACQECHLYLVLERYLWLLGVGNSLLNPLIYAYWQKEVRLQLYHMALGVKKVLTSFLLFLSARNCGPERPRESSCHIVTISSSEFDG
Description: Human GPR119 Activity Assay
Agonists to the human GPR119 receptor were characterized by measuring human GPR119 receptor-mediated stimulation of cyclic AMP (cAMP) in HEK 293 cells expressing the human GPR119 receptor.
Briefly, cAMP content was determined using a cAMP kit based on HTRF technology (Homogeneous Time-Resolved Fluorescence, Cisbio Cat. no. 62AM2PEC). HEK293 cells stably expressing the human GPR119 receptor (HEK293-hGPR119 cells) were cultured in DMEM (Gibco # 31966-021) supplemented with 10% Bovine Calf Serum (Hyclone # SH30072.03), and, 500 μg/mL Hygromycin B (Roche Diagnostics 843555). At 80% confluency, cells were detached using Trypsine and aliquoted at a density of 5×10^6 cells/mL in freezing medium (DMEM (Gibco # 31966-021), 20% BCS (Hyclone # SH30072.03), 10% DMSO (Sigma #D2650) and stored at −135° C. On the experimental day, HEK293-hGPR119 cells were thawn and diluted to 0.4×10^6 cells/mL in assay buffer (1×HBSS (Gibco Cat. no. 14025-049), 20 mM Hepes (Gibco Cat. no. 15630-056), 0.1% BSA, pH 7.4) and incubated with test substances for 20 min at room temperature. After addition of HTRF reagents diluted in lysis buffer, the 96- or 384-well plates were incubated 1 hour, followed by measuring the fluorescence ratio at 665 nm/620 nm. Test substances was diluted in compound buffer (1×HBSS (Gibco Cat. no. 14025-049), 20 mM Hepes (Gibco Cat. no. 15630-056), 0.1% BSA, 2 mM IBMX (Sigma-Aldrich Cat. No. 17018, pH 7.4). The potency of the agonist was quantified by determine the concentration that cause 50% activation of hGPR119 evoked increase in cAMP, EC50.

Compound | EC50 [nM]
CC(C)(C)OC(=O)N1CCC(COc2ncc(-c3ccc(S(C)(=O)=O)cc3)cn2)CC1 [EXAMPLE A2, tert-Butyl 4-[({5-[4-(methylsulfonyl)phenyl]pyrimidin-2-yl}oxy)methyl]piperidine-1-carboxylate] | 14
CC(C)(C)OC(=O)N1CCC(NCc2cnc(-c3ccc(S(C)(=O)=O)cc3)nc2)CC1 [EXAMPLE B1, tert-Butyl 4-[({2-[4-(methylsulfonyl)phenyl]pyrimidin-5-yl}methyl)amino]piperidine-1-carboxylate] | 453
CC(C)(C)OC(=O)N1CCC(CNc2ncc(-c3ccc(S(C)(=O)=O)cc3)cn2)CC1 [EXAMPLE A22, tert-Butyl 4-[({5-[4-(methylsulfonyl)phenyl]pyrimidin-2-yl}amino)methyl]piperidine-1-carboxylate] | 55
